Measured values: the NIST ThermoML archive (doi:10.1016/j.jct.2006.05.004)

Tests used:
[1] = refractive index (Na D-line) (dimensionless); conditions: 298.15 K; 101.33 kPa; Liquid; Standard Abbe refractometry
[2] = 298.15 K; 101.33 kPa; Liquid
[3] = xn = mol fraction of the nth substance listed; conditions: 298.15 K, 101 kPa, Liquid
[4] = excess molar enthalpy (molar enthalpy of mixing); xn = mol fraction of the nth substance listed; conditions: 298.15 K, 101 kPa, Liquid

COC=O [methyl methanoate]
Conditions	mass density [kg/m3]	refractive index
[1]	–	1.3415
[2]	966.83	–

CCCCC(=O)OC [methyl pentanoate]
Conditions	mass density [kg/m3]	refractive index
[1]	–	1.395
[2]	884.59	–

COC(C)=O [methyl ethanoate]
Conditions	mass density [kg/m3]	refractive index
[1]	–	1.3585
[2]	926.73	–

BrCCCCCCBr [1,6-dibromohexane] + CCC(=O)OC
Conditions	excess molar enthalpy [kcal/mol]	mass density [kg/m3]
[3], x2 = 0.0903	–	1557.49
[3], x2 = 0.1731	–	1517.27
[3], x2 = 0.254	–	1475.55
[3], x2 = 0.3276	–	1435.11
[3], x2 = 0.3987	–	1393.7
[3], x2 = 0.4603	–	1355.72
[3], x2 = 0.5254	–	1313.37
[3], x2 = 0.5807	–	1275.39
[3], x2 = 0.6388	–	1233.34
[3], x2 = 0.695	–	1190.53
[3], x2 = 0.7429	–	1152.05
[3], x2 = 0.7914	–	1111.32
[3], x2 = 0.838	–	1070.17
[3], x2 = 0.8789	–	1032.36
[3], x2 = 0.9195	–	993.3
[3], x2 = 0.9621	–	950.1
[4], x2 = 0.0951	0.0356	–
[4], x2 = 0.1915	0.0572	–
[4], x2 = 0.2814	0.0727	–
[4], x2 = 0.3659	0.0818	–
[4], x2 = 0.4423	0.0858	–
[4], x2 = 0.5073	0.0845	–
[4], x2 = 0.5644	0.0809	–
[4], x2 = 0.6136	0.076	–
[4], x2 = 0.6648	0.067	–
[4], x2 = 0.7136	0.0588	–
[4], x2 = 0.7663	0.0488	–
[4], x2 = 0.817	0.0397	–
[4], x2 = 0.8647	0.0308	–
[4], x2 = 0.9137	0.0207	–
[4], x2 = 0.9606	0.0103	–

BrCCCCCBr [1,5-dibromopentane] + CCCCC(=O)OC
Conditions	excess molar enthalpy [kcal/mol]	mass density [kg/m3]
[3], x2 = 0.0687	–	1640.97
[3], x2 = 0.1285	–	1593.96
[3], x2 = 0.1833	–	1550.6
[3], x2 = 0.2445	–	1501.98
[3], x2 = 0.3066	–	1452.48
[3], x2 = 0.4193	–	1362.14
[3], x2 = 0.4804	–	1312.78
[3], x2 = 0.5408	–	1263.86
[3], x2 = 0.601	–	1214.87
[3], x2 = 0.6553	–	1170.47
[3], x2 = 0.7137	–	1122.58
[3], x2 = 0.7698	–	1076.41
[3], x2 = 0.822	–	1033.27
[3], x2 = 0.8841	–	981.75
[4], x2 = 0.0709	0.011	–
[4], x2 = 0.1603	0.0179	–
[4], x2 = 0.2511	0.0203	–
[4], x2 = 0.3436	0.0192	–
[4], x2 = 0.4221	0.0158	–
[4], x2 = 0.4895	0.0112	–
[4], x2 = 0.5345	0.00609	–
[4], x2 = 0.5389	0.00564	–
[4], x2 = 0.5838	0.00184	–
[4], x2 = 0.606	-0.00203	–
[4], x2 = 0.6821	-0.00554	–
[4], x2 = 0.7721	-0.00777	–
[4], x2 = 0.8617	-0.00657	–
[4], x2 = 0.943	-0.000574	–

BrCCCCBr [1,4-dibromobutane] + COC=O
Conditions	excess molar enthalpy [kcal/mol]	mass density [kg/m3]
[3], x2 = 0.0901	–	1776.76
[3], x2 = 0.1948	–	1721.83
[3], x2 = 0.283	–	1670.26
[3], x2 = 0.3632	–	1619.15
[3], x2 = 0.4351	–	1569.44
[3], x2 = 0.5042	–	1517.68
[3], x2 = 0.5678	–	1466.2
[3], x2 = 0.6267	–	1414.75
[3], x2 = 0.6804	–	1364.36
[3], x2 = 0.7742	–	1267.13
[3], x2 = 0.8172	–	1217.73
[3], x2 = 0.8611	–	1164.21
[3], x2 = 0.8985	–	1115.55
[3], x2 = 0.937	–	1062.14
[3], x2 = 0.9687	–	1015.8
[4], x2 = 0.1163	0.0944	–
[4], x2 = 0.2218	0.152	–
[4], x2 = 0.3327	0.205	–
[4], x2 = 0.4395	0.235	–
[4], x2 = 0.518	0.245	–
[4], x2 = 0.581	0.243	–
[4], x2 = 0.5984	0.241	–
[4], x2 = 0.6591	0.226	–
[4], x2 = 0.7346	0.196	–
[4], x2 = 0.8107	0.155	–
[4], x2 = 0.8851	0.104	–
[4], x2 = 0.9503	0.0502	–

BrCCCCCCBr [1,6-dibromohexane] + CCCC(=O)OC
Conditions	excess molar enthalpy [kcal/mol]	mass density [kg/m3]
[3], x2 = 0.0254	–	1587.59
[3], x2 = 0.0833	–	1555.83
[3], x2 = 0.1606	–	1512
[3], x2 = 0.2243	–	1474.58
[3], x2 = 0.291	–	1434.05
[3], x2 = 0.3545	–	1394.06
[3], x2 = 0.4193	–	1351.87
[3], x2 = 0.5445	–	1265.85
[3], x2 = 0.6016	–	1224.52
[3], x2 = 0.6573	–	1182.86
[3], x2 = 0.7029	–	1147.73
[3], x2 = 0.7563	–	1105.29
[3], x2 = 0.8125	–	1059.12
[3], x2 = 0.9056	–	978.87
[4], x2 = 0.0838	0.018	–
[4], x2 = 0.1878	0.0309	–
[4], x2 = 0.2949	0.0395	–
[4], x2 = 0.3961	0.0423	–
[4], x2 = 0.4591	0.0405	–
[4], x2 = 0.5094	0.0383	–
[4], x2 = 0.5864	0.0329	–
[4], x2 = 0.6566	0.0287	–
[4], x2 = 0.734	0.0232	–
[4], x2 = 0.8128	0.0172	–
[4], x2 = 0.8885	0.0108	–
[4], x2 = 0.9526	0.00392	–

BrCCCCBr [1,4-dibromobutane] + CCC(=O)OC
Conditions	excess molar enthalpy [kcal/mol]	mass density [kg/m3]
[3], x2 = 0.0733	–	1763.63
[3], x2 = 0.1392	–	1712.4
[3], x2 = 0.2065	–	1658.81
[3], x2 = 0.2725	–	1604.96
[3], x2 = 0.3378	–	1550.31
[3], x2 = 0.3974	–	1499.32
[3], x2 = 0.4596	–	1444.8
[3], x2 = 0.5225	–	1388.41
[3], x2 = 0.638	–	1281.23
[3], x2 = 0.6944	–	1227.08
[3], x2 = 0.7466	–	1175.87
[3], x2 = 0.7998	–	1122.53
[3], x2 = 0.8489	–	1072.14
[3], x2 = 0.8998	–	1018.87
[3], x2 = 0.9505	–	964.61
[4], x2 = 0.074	0.0219	–
[4], x2 = 0.1513	0.0366	–
[4], x2 = 0.2294	0.0459	–
[4], x2 = 0.305	0.0495	–
[4], x2 = 0.3744	0.0494	–
[4], x2 = 0.4375	0.0468	–
[4], x2 = 0.4948	0.0428	–
[4], x2 = 0.546	0.0378	–
[4], x2 = 0.5911	0.0327	–
[4], x2 = 0.6302	0.0274	–
[4], x2 = 0.6539	0.0245	–
[4], x2 = 0.665	0.0245	–
[4], x2 = 0.6965	0.0181	–
[4], x2 = 0.712	0.016	–
[4], x2 = 0.7721	0.00839	–
[4], x2 = 0.8331	0.00425	–
[4], x2 = 0.8921	0.00227	–
[4], x2 = 0.9477	0.000956	–

BrCCBr [1,2-dibromoethane] + COC=O
Conditions	excess molar enthalpy [kcal/mol]	mass density [kg/m3]
[3], x2 = 0.0941	–	2084.41
[3], x2 = 0.1513	–	2030.58
[3], x2 = 0.2019	–	1980.75
[3], x2 = 0.251	–	1931.96
[3], x2 = 0.2967	–	1881.94
[3], x2 = 0.3904	–	1784.54
[3], x2 = 0.4985	–	1662.03
[3], x2 = 0.5973	–	1543.27
[3], x2 = 0.7057	–	1404.1
[3], x2 = 0.7483	–	1346.2
[3], x2 = 0.7967	–	1278.68
[3], x2 = 0.8478	–	1205.01
[3], x2 = 0.8808	–	1155.98
[3], x2 = 0.9402	–	1064.28
[4], x2 = 0.0726	0.0561	–
[4], x2 = 0.1528	0.112	–
[4], x2 = 0.2426	0.156	–
[4], x2 = 0.3298	0.179	–
[4], x2 = 0.4034	0.19	–
[4], x2 = 0.4719	0.194	–
[4], x2 = 0.5315	0.192	–
[4], x2 = 0.5856	0.185	–
[4], x2 = 0.6347	0.175	–
[4], x2 = 0.6786	0.163	–
[4], x2 = 0.7171	0.15	–
[4], x2 = 0.7759	0.127	–
[4], x2 = 0.8639	0.0849	–
[4], x2 = 0.9405	0.041	–

CCCC(=O)OC [methyl butanoate]
Conditions	mass density [kg/m3]	refractive index
[1]	–	1.386
[2]	892.42	–

BrCCCCCBr [1,5-dibromopentane] + COC(C)=O
Conditions	excess molar enthalpy [kcal/mol]	mass density [kg/m3]
[3], x2 = 0.0956	–	1647.08
[3], x2 = 0.1844	–	1601.35
[3], x2 = 0.2647	–	1557.01
[3], x2 = 0.3394	–	1512.51
[3], x2 = 0.4752	–	1423.41
[3], x2 = 0.5958	–	1333.86
[3], x2 = 0.6582	–	1282.77
[3], x2 = 0.7059	–	1241.33
[3], x2 = 0.7548	–	1196.56
[3], x2 = 0.8019	–	1150.87
[3], x2 = 0.8486	–	1102.92
[3], x2 = 0.8874	–	1060.93
[3], x2 = 0.9243	–	1019.18
[3], x2 = 0.9638	–	972.17
[4], x2 = 0.1045	0.0536	–
[4], x2 = 0.2048	0.0886	–
[4], x2 = 0.2959	0.115	–
[4], x2 = 0.3795	0.13	–
[4], x2 = 0.454	0.137	–
[4], x2 = 0.5171	0.137	–
[4], x2 = 0.5731	0.133	–
[4], x2 = 0.622	0.127	–
[4], x2 = 0.685	0.116	–
[4], x2 = 0.7322	0.103	–
[4], x2 = 0.7812	0.0893	–
[4], x2 = 0.8296	0.0734	–
[4], x2 = 0.874	0.0585	–
[4], x2 = 0.9245	0.0386	–
[4], x2 = 0.9655	0.0173	–

CCC(=O)OC [methyl propanoate]
Conditions	mass density [kg/m3]	refractive index
[1]	–	1.374
[2]	910.18	–

BrCCCCCBr [1,5-dibromopentane] + CCC(=O)OC
Conditions	excess molar enthalpy [kcal/mol]	mass density [kg/m3]
[3], x2 = 0.0841	–	1644.47
[3], x2 = 0.1537	–	1602.6
[3], x2 = 0.1671	–	1594.29
[3], x2 = 0.2971	–	1510.79
[3], x2 = 0.3661	–	1463.62
[3], x2 = 0.4312	–	1417.3
[3], x2 = 0.4903	–	1373.47
[3], x2 = 0.609	–	1280.2
[3], x2 = 0.6628	–	1235.27
[3], x2 = 0.716	–	1189.3
[3], x2 = 0.8143	–	1099.41
[3], x2 = 0.864	–	1051.37
[3], x2 = 0.9561	–	957.37
[4], x2 = 0.0808	0.0283	–
[4], x2 = 0.1674	0.0457	–
[4], x2 = 0.2542	0.0591	–
[4], x2 = 0.3326	0.0658	–
[4], x2 = 0.4065	0.068	–
[4], x2 = 0.4708	0.0667	–
[4], x2 = 0.4974	0.0651	–
[4], x2 = 0.5293	0.0628	–
[4], x2 = 0.5381	0.0621	–
[4], x2 = 0.5791	0.0574	–
[4], x2 = 0.584	0.0562	–
[4], x2 = 0.6329	0.0509	–
[4], x2 = 0.6845	0.0433	–
[4], x2 = 0.7383	0.0366	–
[4], x2 = 0.7938	0.0284	–
[4], x2 = 0.8494	0.0202	–
[4], x2 = 0.9053	0.0112	–
[4], x2 = 0.955	0.00521	–
